Kd data for one compound are collected here from article PMC2553842, “L-DOPA Is an Endogenous Ligand for OA1” (PLoS Biology, 2008).

pKd: −log10 of the molar value.

This test concerns the target T1, OA1 (Homo sapiens, UniProt P51810).
T1 construct: gene GPR143
Kind of test: radioligand saturation binding ([3H]-L-DOPA) on OA1-transfected CHO cells, with Scatchard analysis; supported by calcium response and beta-arrestin recruitment. In kind it is cell-based.

T1 sequence (P51810 whole entry): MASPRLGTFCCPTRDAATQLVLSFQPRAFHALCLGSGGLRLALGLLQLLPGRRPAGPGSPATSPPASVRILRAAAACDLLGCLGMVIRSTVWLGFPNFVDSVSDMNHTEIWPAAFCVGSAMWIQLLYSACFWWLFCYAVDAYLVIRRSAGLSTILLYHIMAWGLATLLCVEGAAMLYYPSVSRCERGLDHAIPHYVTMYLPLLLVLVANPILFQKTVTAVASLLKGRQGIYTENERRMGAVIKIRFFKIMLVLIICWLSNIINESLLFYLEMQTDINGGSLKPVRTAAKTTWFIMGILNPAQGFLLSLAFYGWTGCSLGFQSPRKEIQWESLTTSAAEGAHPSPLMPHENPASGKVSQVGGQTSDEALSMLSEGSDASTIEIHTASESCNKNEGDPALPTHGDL

With `N[C@@H](Cc1ccc(O)c(O)c1)C(=O)O` [L-DOPA], the pKd is 5.03.

As usually defined, the pKd is the Kd on a negative log10 scale, so that one unit is a factor of ten.
